Laboratory results published in US8247211B2, “Glycopeptide antibiotics” (American Cyanamid Company, priority 2001, dated 2012).
Converted amounts (≈) assume the structure as drawn.

Key:
[1] = test system: Streptococcus pneumoniae (GC 1894), penicillin resistant strain; experiment: Acute lethal infection in mice (ED50); assay type: in vivo; details: female CD-1 mice, intraperitoneal challenge, intravenous dose 30 min. after infection, 7 day survival ratios
Procedure, shortened: (§1)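 Female CD-1 mice (20 ± 1-2 g) were infected intraperitoneally with enough bacteria, suspended in Trypticase Soy Broth or hog gastric mucin, to kill untreated controls within 24-48 hr. Compound in saline or 5% dextrose was given intravenously 30 min after infection. ED50 came from pooled 7-day survival over 3 tests.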

[2] = test system: Staphylococcus aureus-SMITH (GC 4543); experiment: Acute lethal infection in mice (ED50); assay type: in vivo; details: female CD-1 mice, intraperitoneal challenge, intravenous dose 30 min. after infection, 7 day survival ratios
Procedure, shortened: as §1

[3] = test system: Enterococcus faecalis (GC 6189), vancomycin resistant strain; experiment: Acute lethal infection in mice (ED50); assay type: in vivo; details: female CD-1 mice, intraperitoneal challenge, intravenous dose 30 min. after infection, 7 day survival ratios
Procedure, shortened: as §1

Escherichia coli = experiment: In vitro antibacterial evaluation: minimum inhibitory concentration (MIC), broth dilution method; assay type: cell-based; details: 5×10^5 CFU/mL, 18 hours at 35° C.
Procedure, shortened: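 NCCLS M7-A2 broth dilution; Muller-Hinton II […]; 5×10^5 CFU/mL; 64-0.06 μg/mL. MIC = lowest concentration with no growth.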

Enterococcus sp. = experiment: as above; assay type: cell-based; details: broth dilution, 5×10^5 CFU/mL, 18 hours at 35° C.
Procedure, shortened: (§2)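 Values are minimum inhibitory concentrations, meaning the smallest antibiotic concentration that stops growth of the organism. They come from broth dilution in Muller-Hinton II […] per NCCLS guidance (M7-A2), using 5×10^5 CFU/mL and concentrations from 64 to 0.06 μg/mL.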

Streptococcus sp. = experiment: as above; assay type: cell-based; details: broth dilution, 5×10^5 CFU/mL, 18 hours at 35° C.
Procedure, shortened: as §2

Staphylococcus sp. = experiment: as above; assay type: cell-based; details: for MIC Staphylococcus aureus-SMITH (GC 4543): strain GC 4543; for MIC Staphylococcus haemolyticus (GC 4546): strain GC 4546; for MIC Coagulase Negative Staphylococcus (GC 4547): strain GC 4547; for MIC Coagulase Negative Staphylococcus (GC 4548): strain GC 4548; for MIC Coagulase Negative Staphylococcus (GC 4549): strain GC 4549; for MIC Coagulase Negative Staphylococcus (GC 4551): strain GC 4551; for MIC Coagulase Negative Staphylococcus (GC 6257): strain GC 6257
Procedure, shortened: as §2

[4] = assay type: in vivo; details: mice, 20 mg/kg intravenously daily for 9 days, serum on day 10
Description: 20-day-old CD-1 mice were divided into a vehicle control group (5 mice) and a treatment group (5 mice). Samples of glycopeptide antibiotics were administered at 20 mg/kg intravenously daily for 9 days. Animals were necropsied on day 10 Sera were analyzed for BUN (blood urea nitrogen), creatinine, AST (aspartic aminotransferase), and ALT (alanine aminotransferase) by routine, standard, automated methods using an Hitachi 747 chemistry analyzer.

[5] = Anatomic pathology (heart and kidney histopathology) in mice; assay type: in vivo, CD-1 mice; details: 20 mg/kg intravenously daily for 9 days, microscopic histopathology on day 10
Procedure, shortened: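 Juvenile CD-1 mice (20 days old; 5 vehicle, 5 treated) received glycopeptide antibiotic 20 mg/kg i.v. daily for 9 days. Necropsied tissues formalin-fixed, paraffin-embedded, H&E stained and examined microscopically; findings graded slight to severe versus controls.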

[6] = broth dilution, 18 hours at 35° C.

CC(c1ccccc1)C1NC(=O)CNC(=O)C(CO)NC(=O)C(C(O)C2CNC(=N)N2C2OC(CO)C(O)C(O)C2O)NC(=O)C(C(O)C2CNC(=N)N2)NC(=O)C(Cc2ccc(OC3OC(CO)C(OC4OC5COC(c6ccccc6)OC5C(O)C4O)C(O)C3O)cc2)NC1=O (stereo not drawn) [Example 104, Cyclo[glycyl-β-methylphenylalanyl-O-[4-O-(4,6-O-benzylidenehexopyranosyl)hexopyranosyl]-tyrosyl-3-(2-iminoimidazolidin-4-yl)seryl-3-(3-hexopyranosyl-2-iminoimidazolidin-4-yl)-serylseryl]]
median effective dose (ED50), Streptococcus pneumoniae (GC 1894) [1]: 0.22 mg/kg
median effective dose (ED50), Staphylococcus aureus-SMITH (GC 4543) [2]: 0.19 mg/kg
median effective dose (ED50), Enterococcus faecalis (GC 6189) [3]: 0.39-0.63
MIC Escherichia coli (GC 4560) (Escherichia coli): 0.5 to 1 µg/mL
MIC Enterococccus avium (GC 4558) (Enterococcus sp.): 2 to 4 µg/mL
MIC Enterococccus faecalis (ATCC 29212) (Enterococcus sp.): 2 to 4 µg/mL
MIC Enterococccus faecalis (GC 2691) (Enterococcus sp.): 4 µg/mL (≈ 2.89 µM)
MIC Enterococccus faecalis (GC 3059) (Enterococcus sp.): 4 µg/mL (≈ 2.89 µM)
MIC Enterococccus faecalis (GC 4552) (Enterococcus sp.): 4 µg/mL (≈ 2.89 µM)
MIC Enterococccus faecalis (GC 4553) (Enterococcus sp.): 4 µg/mL (≈ 2.89 µM)
MIC Enterococccus faecalis (GC 4554) (Enterococcus sp.): 4 µg/mL (≈ 2.89 µM)
MIC Enterococccus faecalis (GC 6189) (Enterococcus sp.): 2 µg/mL (≈ 1.45 µM)
MIC Enterococccus faecium (GC 2243) (Enterococcus sp.): 2 µg/mL (≈ 1.45 µM)
MIC Enterococccus faecium (GC 4556) (Enterococcus sp.): 2 to 4 µg/mL
MIC Enterococccus faecium (GC 4557) (Enterococcus sp.): 2 µg/mL (≈ 1.45 µM)
MIC Enterococcus faecalis (GC 2242) (Enterococcus sp.): 2 µg/mL (≈ 1.45 µM)
MIC Streptococcus pneumoniae (GC 1894) (Streptococcus sp.): <0.12 µg/mL
MIC Streptococcus pneumoniae (GC 4565) (Streptococcus sp.): <0.12 µg/mL
MIC Streptococcus pneumonine (ATCC 6301) (Streptococcus sp.): <0.12 µg/mL
MIC Streptococcus pyogenes (GC 4563) (Streptococcus sp.): <0.12 µg/mL
MIC Staphylococcus aureus (ATCC 29213) (Staphylococcus sp.; strain ATCC 29213): 1 µg/mL (≈ 0.723 µM)
MIC Staphylococcus aureus (GC 1131) (Staphylococcus sp.; strain GC 1131): 2 µg/mL (≈ 1.45 µM)
MIC Staphylococcus aureus (GC 3051) (Staphylococcus sp.; strain GC 3051): 1 µg/mL (≈ 0.723 µM)
MIC Staphylococcus aureus (GC 3053) (Staphylococcus sp.; strain GC 3053): 1 µg/mL (≈ 0.723 µM)
MIC Staphylococcus aureus (GC 4541) (Staphylococcus sp.; strain GC 4541): 1 µg/mL (≈ 0.723 µM)
MIC Staphylococcus aureus (GC 4542) (Staphylococcus sp.; strain GC 4542): 0.5 µg/mL (≈ 0.361 µM)
MIC Staphylococcus aureus-SMITH (GC 4543) (Staphylococcus sp.; 18 hours at 35° C.): 0.5 to 1 µg/mL
MIC Staphylococcus aureus-SMITH (GC 4543) (Staphylococcus sp.; [6]): 0.5 to 1 µg/mL
MIC Staphylococcus aureus (GC 4544) (Staphylococcus sp.; strain GC 4544): 1 µg/mL (≈ 0.723 µM)
MIC Staphylococcus aureus (GC 4545) (Staphylococcus sp.; strain GC 4545): 0.5 to 1 µg/mL
MIC Staphylococcus haemolyticus (GC 4546) (Staphylococcus sp.): 0.5 µg/mL (≈ 0.361 µM)
MIC Staphylococcus haemolyticus (GC 4546) (Staphylococcus sp.; [6]): 0.5 µg/mL (≈ 0.361 µM)
MIC Coagulase Negative Staphylococcus (GC 4547) (Staphylococcus sp.): 1 µg/mL (≈ 0.723 µM)
MIC Coagulase Negative Staphylococcus (GC 4547) (Staphylococcus sp.; [6]): 1 µg/mL (≈ 0.723 µM)
MIC Coagulase Negative Staphylococcus (GC 4548) (Staphylococcus sp.): 0.5 to 1 µg/mL
MIC Coagulase Negative Staphylococcus (GC 4548) (Staphylococcus sp.; [6]): 0.5 to 1 µg/mL
MIC Coagulase Negative Staphylococcus (GC 4549) (Staphylococcus sp.): 0.5 µg/mL (≈ 0.361 µM)
MIC Coagulase Negative Staphylococcus (GC 4549) (Staphylococcus sp.; [6]): 0.5 µg/mL (≈ 0.361 µM)
MIC Coagulase Negative Staphylococcus (GC 4551) (Staphylococcus sp.): 1 µg/mL (≈ 0.723 µM)
MIC Coagulase Negative Staphylococcus (GC 4551) (Staphylococcus sp.; [6]): 1 µg/mL (≈ 0.723 µM)
MIC Coagulase Negative Staphylococcus (GC 6257) (Staphylococcus sp.): 0.5 µg/mL (≈ 0.361 µM)
MIC Coagulase Negative Staphylococcus (GC 6257) (Staphylococcus sp.; [6]): 0.5 µg/mL (≈ 0.361 µM)
Clinical Chemistry (Day 10) % of Control, AST [4]: +87%
Clinical Chemistry (Day 10) % of Control, Creatinine [4]: +65%
Anatomical Pathology (Day 10), Heart [5]: +++
Anatomical Pathology (Day 10), Kidney [5]: +++
